Experimental data as given in patent US20230085307A1, “PYRIDAZINONE COMPOUND AND HERBICIDE” (NISSAN CHEMICAL CORPORATION, priority 2019, published 2023).

Tests used:
Italian ryegrass [1] = experiment: Test Example 4: herbicidal effect by soil treatment (Table 19, symbol K); format: in vivo, Italian ryegrass (Lolium multiflorum); conditions: AAH 320 g/ha
Summary of the method: (§1)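 Scoring uses the grading scale of an earlier test, three weeks post-application. Treatment consists of spraying a diluted emulsion formulation across the surface of sterilized diluvial soil in which seeds are buried near 1.5 cm deep; boxes are kept in a greenhouse between 25° C. and 30° C.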

velvetleaf [2] = experiment: Test Example 5: herbicidal effect by foliage application, plastic box (Table 20, symbol M); format: in vivo, velvetleaf (Abutilon theophrasti); conditions: foliage application, AAH 320 g/ha, three weeks after application
Summary of the method: (§2)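 Post-emergence foliar test in sterilized diluvial soil. Compound applied as water-diluted emulsion at a predetermined rate to 14-day-old plants; evaluation at three weeks.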

velvetleaf [3] = experiment: Test Example 4: herbicidal effect by soil treatment (Table 19, symbol M); format: in vivo, velvetleaf (Abutilon theophrasti); conditions: AAH 320 g/ha
Summary of the method: as §1

wild oat [4] = experiment: Test Example 4: herbicidal effect by soil treatment (Table 19, symbol I); format: in vivo, wild oat (Avena fatua); conditions: AAH 320 g/ha
Summary of the method: as §1

barnyard grass [5] = experiment: Test Example 4: herbicidal effect by soil treatment (Table 19, symbol H); format: in vivo, barnyard grass (Echinochloa crus-galli); conditions: AAH 320 g/ha
Summary of the method: as §1

windgrass [6] = experiment: Test Example 5: herbicidal effect by foliage application, plastic box (Table 20, symbol L); format: in vivo, windgrass (Apera spica-venti); conditions: foliage application, AAH 320 g/ha, three weeks after application
Summary of the method: as §2

barnyard grass [7] = experiment: Test Example 5: herbicidal effect by foliage application, plastic box (Table 20, symbol H); format: in vivo, barnyard grass (Echinochloa crus-galli); conditions: foliage application, AAH 320 g/ha, three weeks after application
Summary of the method: as §2

barnyard grass [8] = experiment: Test Example 3: herbicidal effect by foliage application, Wagner pot (Table 18, symbol H); format: in vivo, barnyard grass (Echinochloa crus-galli); conditions: 320 g/ha
Summary of the method: (§3)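 Plants were sown in alluvial soil held under 0.1–0.5 cm standing water and grown 14 days in a greenhouse at 25–30 °C. An emulsifiable formulation, water-diluted to the set dose, was then sprayed onto the foliage, and effects were scored three weeks later using previously defined criteria.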

persian speedwell [9] = experiment: Test Example 5: herbicidal effect by foliage application, plastic box (Table 20, symbol R); format: in vivo, Persian speedwell (Veronica persica); conditions: foliage application, AAH 320 g/ha, three weeks after application
Summary of the method: as §2

false cleavers = experiment: Test Example 5: herbicidal effect by foliage application, plastic box (Table 20, symbol Q); format: in vivo, false cleavers (Galium spurium); conditions: foliage application, AAH 320 g/ha, three weeks after application
Summary of the method: as §2

blackgrass = experiment: Test Example 5: herbicidal effect by foliage application, plastic box (Table 20, symbol J); format: in vivo, blackgrass (Alopecurus myosuroides); conditions: foliage application, AAH 320 g/ha, three weeks after application
Summary of the method: as §2

lambsquarters [10] = experiment: Test Example 5: herbicidal effect by foliage application, plastic box (Table 20, symbol O); format: in vivo, lambsquarters (Chenopodium album); conditions: foliage application, AAH 320 g/ha, three weeks after application
Summary of the method: as §2

green foxtail [11] = experiment: Test Example 5: herbicidal effect by foliage application, plastic box (Table 20, symbol G); format: in vivo, green foxtail (Setaria viridis); conditions: foliage application, AAH 320 g/ha, three weeks after application
Summary of the method: as §2

chickweed [12] = experiment: Test Example 4: herbicidal effect by soil treatment (Table 19, symbol P); format: in vivo, common chickweed (Stellaria media); conditions: AAH 320 g/ha
Summary of the method: as §1

windgrass [13] = experiment: Test Example 4: herbicidal effect by soil treatment (Table 19, symbol L); format: in vivo, windgrass (Apera spica-venti); conditions: AAH 320 g/ha
Summary of the method: as §1

southern crabgrass [14] = experiment: Test Example 5: herbicidal effect by foliage application, plastic box (Table 20, symbol F); format: in vivo, southern crabgrass (Digitaria ciliaris); conditions: foliage application, AAH 320 g/ha, three weeks after application
Summary of the method: as §2

southern crabgrass [15] = experiment: Test Example 4: herbicidal effect by soil treatment (Table 19, symbol F); format: in vivo, southern crabgrass (Digitaria ciliaris); conditions: AAH 320 g/ha
Summary of the method: as §1

Chinese sprangletop = experiment: Test Example 3: herbicidal effect by foliage application, Wagner pot (Table 18, symbol D); format: in vivo, chinese sprangletop (Leptochloa chinensis); conditions: 320 g/ha
Summary of the method: as §3

persian speedwell [16] = experiment: Test Example 4: herbicidal effect by soil treatment (Table 19, symbol R); format: in vivo, Persian speedwell (Veronica persica); conditions: AAH 320 g/ha
Summary of the method: as §1

Italian ryegrass [17] = experiment: Test Example 5: herbicidal effect by foliage application, plastic box (Table 20, symbol K); format: in vivo, Italian ryegrass (Lolium multiflorum); conditions: foliage application, AAH 320 g/ha, three weeks after application
Summary of the method: as §2

lambsquarters [18] = experiment: Test Example 4: herbicidal effect by soil treatment (Table 19, symbol O); format: in vivo, lambsquarters (Chenopodium album); conditions: AAH 320 g/ha
Summary of the method: as §1

rice flat sedge = experiment: Test Example 3: herbicidal effect by foliage application, Wagner pot (Table 18, symbol E); format: in vivo, rice flat sedge (Cyperus iria); conditions: 320 g/ha
Summary of the method: as §3

green foxtail [19] = experiment: Test Example 4: herbicidal effect by soil treatment (Table 19, symbol G); format: in vivo, green foxtail (Setaria viridis); conditions: AAH 320 g/ha
Summary of the method: as §1

redroot pigweed [20] = experiment: Test Example 4: herbicidal effect by soil treatment (Table 19, symbol N); format: in vivo, redroot pigweed (Amaranthus retroflexus); conditions: AAH 320 g/ha
Summary of the method: as §1

redroot pigweed [21] = experiment: Test Example 5: herbicidal effect by foliage application, plastic box (Table 20, symbol N); format: in vivo, redroot pigweed (Amaranthus retroflexus); conditions: foliage application, AAH 320 g/ha, three weeks after application
Summary of the method: as §2

chickweed [22] = experiment: Test Example 5: herbicidal effect by foliage application, plastic box (Table 20, symbol P); format: in vivo, common chickweed (Stellaria media); conditions: foliage application, AAH 320 g/ha, three weeks after application
Summary of the method: as §2

wild oat [23] = experiment: Test Example 5: herbicidal effect by foliage application, plastic box (Table 20, symbol I); format: in vivo, wild oat (Avena fatua); conditions: foliage application, AAH 320 g/ha, three weeks after application
Summary of the method: as §2

**Q.** How did the “K: Italian ryegrass, herbicidal effect rating” value (Italian ryegrass [1]) turn out when `CCCC(=O)Oc1c(OC)nn(C)c(=O)c1-c1c(-c2cc(F)c(F)c(F)c2)sc2ccccc12` [1-187] was run?
**A.** 0 (Herbicidal rate of 5% or less (almost no effect))

**Q.** What about the “M: velvetleaf, herbicidal effect” value (velvetleaf [2]) of the same molecule?
**A.** 4 (Herbicidal rate of 70% or more and less than 90%)

**Q.** What about the “M: velvetleaf, herbicidal effect rating” value (velvetleaf [3]) of the same molecule?
**A.** 0 (Herbicidal rate of 5% or less (almost no effect))

**Q.** What about the “I: wild oat, herbicidal effect rating” value (wild oat [4]) of the same molecule?
**A.** 0 (Herbicidal rate of 5% or less (almost no effect))

**Q.** And the “H: barnyard grass, herbicidal effect rating” value (barnyard grass [5])?
**A.** 0 (Herbicidal rate of 5% or less (almost no effect))

**Q.** And the “L: windgrass, herbicidal effect” value (windgrass [6])?
**A.** 0 (Herbicidal rate of 5% or less (almost no effect))

**Q.** And the “H: barnyard grass, herbicidal effect” value (barnyard grass [7])?
**A.** 0 (Herbicidal rate of 5% or less (almost no effect))

**Q.** What about the “herbicidal effect on H (barnyard grass), rating 0-5” value (barnyard grass [8]) of the same molecule?
**A.** 0 (Herbicidal rate of 5% or less (almost no effect))

**Q.** And the “R: persian speedwell, herbicidal effect” value (persian speedwell [9])?
**A.** 5 (Herbicidal rate of 90% or more (almost completely withered))

**Q.** What about the “Q: false cleavers, herbicidal effect” value (false cleavers) of the same molecule?
**A.** 0 (Herbicidal rate of 5% or less (almost no effect))

**Q.** What about the “J: blackgrass, herbicidal effect” value (blackgrass) of the same molecule?
**A.** 0 (Herbicidal rate of 5% or less (almost no effect))

**Q.** And the “O: lambsquarters, herbicidal effect” value (lambsquarters [10])?
**A.** 5 (Herbicidal rate of 90% or more (almost completely withered))

**Q.** What about the “G: green foxtail, herbicidal effect” value (green foxtail [11]) of the same molecule?
**A.** 0 (Herbicidal rate of 5% or less (almost no effect))

**Q.** What about the “P: chickweed, herbicidal effect rating” value (chickweed [12]) of the same molecule?
**A.** 5 (Herbicidal rate of 90% or more (almost completely withered))

**Q.** What about the “L: windgrass, herbicidal effect rating” value (windgrass [13]) of the same molecule?
**A.** 0 (Herbicidal rate of 5% or less (almost no effect))

**Q.** What about the “F: southern crabgrass, herbicidal effect” value (southern crabgrass [14]) of the same molecule?
**A.** 0 (Herbicidal rate of 5% or less (almost no effect))

**Q.** And the “F: southern crabgrass, herbicidal effect rating” value (southern crabgrass [15])?
**A.** 0 (Herbicidal rate of 5% or less (almost no effect))

**Q.** And the “herbicidal effect on D (Chinese sprangletop), rating 0-5” value (Chinese sprangletop)?
**A.** 0 (Herbicidal rate of 5% or less (almost no effect))

**Q.** What about the “R: persian speedwell, herbicidal effect rating” value (persian speedwell [16]) of the same molecule?
**A.** 4 (Herbicidal rate of 70% or more and less than 90%)

**Q.** And the “K: Italian ryegrass, herbicidal effect” value (Italian ryegrass [17])?
**A.** 0 (Herbicidal rate of 5% or less (almost no effect))

**Q.** What about the “O: lambsquarters, herbicidal effect rating” value (lambsquarters [18]) of the same molecule?
**A.** 4 (Herbicidal rate of 70% or more and less than 90%)

**Q.** And the “herbicidal effect on E (rice flat sedge), rating 0-5” value (rice flat sedge)?
**A.** 3 (Herbicidal rate of 40% or more and less than 70%)

**Q.** What about the “G: green foxtail, herbicidal effect rating” value (green foxtail [19]) of the same molecule?
**A.** 0 (Herbicidal rate of 5% or less (almost no effect))

**Q.** What about the “N: redroot pigweed, herbicidal effect rating” value (redroot pigweed [20]) of the same molecule?
**A.** 0 (Herbicidal rate of 5% or less (almost no effect))

**Q.** What about the “N: redroot pigweed, herbicidal effect” value (redroot pigweed [21]) of the same molecule?
**A.** 4 (Herbicidal rate of 70% or more and less than 90%)

**Q.** What about the “P: chickweed, herbicidal effect” value (chickweed [22]) of the same molecule?
**A.** 3 (Herbicidal rate of 40% or more and less than 70%)

**Q.** What about the “I: wild oat, herbicidal effect” value (wild oat [23]) of the same molecule?
**A.** 0 (Herbicidal rate of 5% or less (almost no effect))
